{
  "source": "patent US10954549B2",
  "about": "“Detection and classification of an anticoagulant using a clotting assay” (Haemonetics Corporation, priority 2014, dated 2021)",
  "format_in_all_cases": "biochemical, human",
  "key": {"citrated whole blood [1]": {"tested_on": "citrated whole blood", "assay": "TEG Kaolin test of blood spiked with anticoagulant", "conditions": "for R value versus control reference range: reference range about 5 to about 10 minutes; for MA values versus control: all studied concentrations; for R, K, α, and MRTG parameters, statistical significance versus control: three concentrations per drug, Example 1; for MRTG / TMRTG: Kaolin", "from_the_text": "(§1) The TEG clotting assay was used to determine if low, normal, and high doses of dabigatran, rivaroxaban, and apixaban could be detected in blood spiked with these compounds. Three oral anticoagulants (OAC), namely dabigatran, rivaroxaban, and apixaban, were spiked into blood obtained from 14 healthy volunteer human donors. For each OAC tested, citrated blood from three donors was spiked with three different concentrations of the active drug (i.e., the compound). The spiked blood samples and control samples spiked with diluent were tested with the TEG® 5000 Thrombelastograph® Hemostasis Analyzer (Haemonetics Corporation, Braintree, Mass., USA) using the Kaolin and RapidTEG® reagents (Haemonetics). Each sample was run in triplicate. All samples were tested with and without ecarin (purchased from Enzyme Research Laboratories, South Bend, IN). This study was IRB approved and all donors were over 18 and signed informed consent forms.\nDabigatran stock was prepared from the active dabigatran moiety (Alsachim, France) by dissolution in 0.1M HCl and further dilution in 1:1 DMSO:H20. […] Tubes of citrated blood were spiked with this dabigatran stock to create final concentrations of 500, 200, and 50 ng/mL of citrated whole blood.\nRivaroxaban stock was prepared by agitation of a 20 mg Xarelto tablet (Jannsen, Titusville, N.J.) in a 1:1 DMSO: H20 solution, which was diluted to a final concentration of 20 ng/uL rivaroxaban in 1:1 DMSO:H20. Tubes of citrated blood were spiked with this rivaroxaban stock to create final concentrations of 500, 89, and 22 ng/mL in citrated whole blood. […] Apixaban stock was prepared in a similar manner from a 2.5 mg Eliquis tablet (Bristol-Myers Squibb, New York, N.Y.), with final concentrations of 1000, 500, and 250 ng/mL in whole blood. Apixaban is approved for prevention of VTE in elective hip or knee replacement surgery (2.5 mg BID) and for prevention of stroke and systemic embolism in patients with non-valvular AF (5 mg BID) (see Bristol-Myers SP, EEIG. apixaban summary of product characteristics). […] Control samples, prepared for each tested drug, included a solvent control containing only citrated blood and the diluent used to dilute the drug stock, and an unadulterated citrate blood tube.\nTesting was performed on TEG-5000 analyzers (Haemonetics Corp., Braintree, Mass., USA) using Kaolin vials, 0.2M CaCl2, RapidTEG (rTEG) vials, diluent water, and disposable clear cups and pins provided by the manufacturer (Haemonetics, Braintree, Mass.), and ecarin (Enzyme Research Laboratories, South Bend, Ind.). All testing was performed in triplicate at each dose, and allowed to continue until the MA (maximum amplitude) parameter defined. The various components of the TEG tracing are depicted in FIG. 3A. The Kaolin test generates an R parameter, which is measured in minutes, and is the time elapsed from the initiation of the test until the point where the onset of clotting provides enough resistance to produce a 2 mm amplitude reading on the TEG tracing. This parameter represents the initiation phase of coagulation related to the function of enzymatic clotting factors. The R parameter has a normal range of 5 to 10 min for kaolin. A prolonged R time indicates slower clot formation. K is a measurement of the time interval from the split point to the point where fibrin cross-linking provides enough clot resistance to produce a 20 mm amplitude reading. The α angle is the angle formed by the slope of a tangent line traced from the R to the K time and a central line measured in degrees. K time and the α angle denote the rate at which the clot strengthens, and is representative of thrombin's cleaving of the available fibrinogen into fibrin. The MA indicates the point at which clot strength reaches its maximum amplitude, measured in millimeters on the TEG tracing, and reflects the end result of maximal platelet-fibrin interaction via the GPIIb-IIIa receptors (see Khurana S et al., J Lab Clin Med. 130:401-411, 1997). […]"}, "citrated whole blood [2]": {"tested_on": "citrated whole blood", "assay": "RapidTEG (rTEG) test of blood spiked with anticoagulant", "conditions": "for TEG ACT parameter versus control group: all tested concentrations (except rivaroxaban 22 ng/mL)", "from_the_text": "as §1\nThe RapidTEG (rTEG) test incorporated both tissue factor and kaolin to generate the conventional kaolin parameters as well as the TEG-ACT parameter, which is measured in seconds. The TEG-ACT is equivalent to the Activated Clotting Time (see Chavez J. J. et al., Anesth. Analg. 99:1290-1294, 2004) and has a normal range of 86 to 118 seconds. A prolonged TEG-ACT time indicates slower clot formation. In addition, velocity curves derived from the above mentioned kaolin and rTEG tests were plotted using TEG software. These curves represent the speed of clot propagation (MRTG, Maximum Rate of Thrombus Generation; and TMRTG, Time to Maximum Rate of Thrombus Generation) (see FIG. 3B).\nFor the RapidTEG (rTEG) test, the reagent was reconstituted with 20 μL diluent water, and allowed to stand for 5 minutes per manufacturer instructions. Ten μL of this reconstituted reagent was added to the TEG cup with 20 μl 0.2M CaCl2 for recalcification.\n340 μL of the citrated blood sample was added to the cup with these two reagents, and the contents of the cup were mixed 3 times by drawing the contents of the cup up into the pipette and redispensing it into the cup. The test was started immediately after mixing and allowed to run until the MA parameter had defined. The rTEG with ecarin test was performed as the rTEG test above, using 20 μL of an ecarin/CaCl2 solution (0.16M CaCl2; 19EU/mL ecarin)."}, "citrated whole blood [3]": {"tested_on": "citrated whole blood", "assay": "TEG kaolin with ecarin test of spiked blood", "conditions": "for R value with ecarin versus reference range: Example 2, three dosage levels, kaolin reference range about 5 to about 10 minutes; for R time in the presence versus absence of ecarin: FIGS. 8A-8C; for MA values with ecarin relative to samples run without ecarin: kaolin test; for R, K and TMRTG values on addition of ecarin to the kaolin test / α and MRTG values on addition of ecarin to the kaolin test: treated and control groups", "from_the_text": "as §1\nFor the kaolin test, 1 mL of citrated blood sample was mixed with kaolin and 340 microliters (μL) of this blood was added to a TEG cup containing 20 μL of 0.2M CaCl2 for recalcification. The kaolin with ecarin test was performed in a similar fashion, using 20 μL of an ecarin/CaCl2 solution (0.16 M CaCl2; 19 EU/mL ecarin).\nEcarin is derived from the venom of the saw-scaled viper, Echis carinatus. Ecarin activates prothrombin (the precursor of thrombin—see FIG. 5). This activation of prothrombin by ecarin produces meizothrombin, a prothrombin-thrombin intermediate which has a low level of procoagulant enzymatic activity.\nHealthy human volunteers (who are not being administered any anticoagulant), donated blood. Following donation, the blood collected from the donors (which was added to citrate to prevent clotting) was divided into portions, and portions of the blood were spiked with either nothing, dabigatran, or rivaroxaban. The portions were then assayed using thromboelastography, including assays performed in the presence of ecarin."}, "[4]": {"conditions": "blood spiked with 50 ng/ml dabigatran"}, "[5]": {"conditions": "blood spiked with 200 ng/ml dabigatran"}, "[6]": {"conditions": "blood spiked with 500 ng/ml dabigatran"}},
  "data": [
    {"molecule": "O=C(NC[C@H]1CN(c2ccc(N3CCOCC3=O)cc2)C(=O)O1)c1ccc(Cl)s1", "note": "[rivaroxaban, Rivaroxaban]", "values": [
      {"measurement": "R value versus control reference range", "setting": "citrated whole blood [1]; 500 ng/ml (highest dosage)", "result": "outside of the normal (i.e., control) reference range"},
      {"measurement": "MA values versus control", "setting": "citrated whole blood [1]", "result": "did not change"},
      {"measurement": "R time versus non-spiked blood sample", "setting": "citrated whole blood [1]; highest concentration tested", "result": "significantly higher"},
      {"measurement": "R value versus control reference range", "setting": "citrated whole blood [1]; lower two doses (22 and 89 ng/ml)", "result": "within the control reference range"},
      {"measurement": "R, K, α, and MRTG parameters, statistical significance versus control", "setting": "citrated whole blood [1]", "result": "only achieved statistical significance for the higher concentrations"},
      {"measurement": "K, α and MRTG parameters versus control or between studied concentrations", "setting": "citrated whole blood [2]", "result": "did not show any statistical difference"},
      {"measurement": "TEG ACT parameter, distinguishing between concentrations", "setting": "citrated whole blood [2]", "result": "good dose response curve"},
      {"measurement": "TMRTG parameter sensitivity to presence of drug", "setting": "citrated whole blood [2]", "result": "sensitive to the presence"},
      {"measurement": "MA values versus control", "setting": "citrated whole blood [2]; all studied concentrations", "result": "did not change"},
      {"measurement": "TEG ACT parameter versus control group", "setting": "citrated whole blood [2]", "result": "significantly different"},
      {"measurement": "ACT time versus non-spiked blood sample", "setting": "citrated whole blood [2]; medium and higher concentrations", "result": "significantly higher"},
      {"measurement": "R value with ecarin versus reference range", "setting": "citrated whole blood [3]", "result": "dramatically shortened and all three dosage levels fall outside of the control reference range"},
      {"measurement": "R time in the presence versus absence of ecarin", "setting": "citrated whole blood [3]", "result": "equivalent and significant shortening of R time"},
      {"measurement": "MA values with ecarin relative to samples run without ecarin", "setting": "citrated whole blood [3]", "result": "did not change"},
      {"measurement": "R, K and TMRTG values on addition of ecarin to the kaolin test", "setting": "citrated whole blood [3]", "result": "significant decrease"},
      {"measurement": "α and MRTG values on addition of ecarin to the kaolin test", "setting": "citrated whole blood [3]", "result": "significant increase"}
    ]},
    {"molecule": "dabigatran", "values": [
      {"measurement": "R value versus control reference range", "setting": "citrated whole blood [1]; 50 ng/ml (lowest dosage)", "result": "outside of the normal (i.e., control) reference range"},
      {"measurement": "R value, dose dependence", "setting": "citrated whole blood [1]; 50, 200, 500 ng/ml", "result": "increases the R value of the tested blood components in a dose dependent manner"},
      {"measurement": "R, α, and TMRTG parameters between concentrations", "setting": "citrated whole blood [1]; 500, 200, 50 ng/mL", "result": "significantly different between all concentrations"},
      {"measurement": "R time versus non-spiked blood sample", "setting": "citrated whole blood [1]; all doses", "result": "significantly higher"},
      {"measurement": "MA values versus control", "setting": "citrated whole blood [1]", "result": "did not change"},
      {"measurement": "MRTG", "setting": "citrated whole blood [1]; [4]", "result": 13, "unit": "mm/min"},
      {"measurement": "TMRTG", "setting": "citrated whole blood [1]; [4]", "result": 13, "unit": "min"},
      {"measurement": "MRTG", "setting": "citrated whole blood [1]; [5]", "result": 12, "unit": "mm/min"},
      {"measurement": "TMRTG", "setting": "citrated whole blood [1]; [5]", "result": 18, "unit": "min"},
      {"measurement": "MRTG", "setting": "citrated whole blood [1]; [6]", "result": 7, "unit": "mm/min"},
      {"measurement": "TMRTG", "setting": "citrated whole blood [1]; [6]", "result": 22, "unit": "min"},
      {"measurement": "R, K, α, and MRTG parameters, statistical significance versus control", "setting": "citrated whole blood [1]", "result": "able to detect the presence of all tested concentrations"},
      {"measurement": "TEG ACT parameter, distinguishing between concentrations", "setting": "citrated whole blood [2]", "result": "good dose response curve"},
      {"measurement": "TMRTG parameter sensitivity to presence of drug", "setting": "citrated whole blood [2]", "result": "sensitive to the presence"},
      {"measurement": "K parameter versus control", "setting": "citrated whole blood [2]; 200 ng/mL and 50 ng/mL", "result": "statistically different from control"},
      {"measurement": "K parameter versus control", "setting": "citrated whole blood [2]; 500 ng/mL", "result": "not for the concentration of 500 ng/mL"},
      {"measurement": "α parameter versus control", "setting": "citrated whole blood [2]; 500 ng/mL and 50 ng/mL", "result": "statistically different from control"},
      {"measurement": "MA values versus control group", "setting": "citrated whole blood [2]; 500 ng/mL, still within normal range", "result": "significantly different from the control group"},
      {"measurement": "MRTG parameter sensitivity", "setting": "citrated whole blood [2]; 500, 200, 50 ng/mL", "result": "sensitive to the two lowest concentrations"},
      {"measurement": "TMRTG parameter between concentrations", "setting": "citrated whole blood [2]; 500 vs 200 ng/mL, 200 vs 50 ng/mL", "result": "able to differentiate between concentrations"},
      {"measurement": "K and α parameters, highest concentration versus other concentrations", "setting": "citrated whole blood [2]; 500 vs 200 ng/mL, 500 vs 50 ng/mL", "result": "able to differentiate"},
      {"measurement": "ACT time versus non-spiked blood sample", "setting": "citrated whole blood [2]; all concentrations", "result": "significantly higher"},
      {"measurement": "TEG ACT parameter versus control group", "setting": "citrated whole blood [2]", "result": "significantly different"},
      {"measurement": "R, kaolin test with ecarin", "setting": "citrated whole blood [3]; 500, 200, 50 ng/mL", "result": "only a dose related decrease of the R"},
      {"measurement": "R value with ecarin versus reference range", "setting": "citrated whole blood [3]", "result": "shortened and approaches the normal reference range"},
      {"measurement": "R time in the presence versus absence of ecarin", "setting": "citrated whole blood [3]", "result": "concentration dependent decrease in R time"},
      {"measurement": "MA values with ecarin relative to samples run without ecarin", "setting": "citrated whole blood [3]", "result": "did not change"},
      {"measurement": "R, K and TMRTG values on addition of ecarin to the kaolin test", "setting": "citrated whole blood [3]", "result": "significant decrease"},
      {"measurement": "α and MRTG values on addition of ecarin to the kaolin test", "setting": "citrated whole blood [3]", "result": "significant increase"}
    ]}
  ]
}
